Results from ChEMBL document CHEMBL4020702, “Development of α1,6-fucosyltransferase inhibitors through the diversity-oriented syntheses of GDP-fucose mimics using the coupling between alkyne and sulfonyl azide” (Bioorg Med Chem, 2017).

Each compound was assayed against T1, Alpha-(1,6)-fucosyltransferase (Homo sapiens) (UniProt Q9BYC5) (assay: Inhibition of FUT8 in human […] cells at 100 uM using (S)-2-(((9H-fluoren-9-yl)methoxy)carbonylamino)-4-((2R,3R,4R,5S,6R)-3-acetamido-5-((2S,3R,4R,5S,6R)-3-acetamido-5-((2S,3S,4S,5R,6R)-4-((2R,3S,4S,5S,6R)-3-((2S,3R,4R,5S,6R)-3-acetamido-4,5-dihydroxy-6-(hydroxymethyl)tetrahydro-2H-pyran-2-yloxy)-4,5-dihydroxy-6-(hydroxymethyl)tetrahydro-2H-pyran-2-yloxy)-6-(((2S,3S,4S,5S,6R)-3-((2S,3R,4R,5S,6R)-3-acetamido-4,5-dihydroxy-6-(hydroxymethyl)tetrahydro-2H-pyran-2-yloxy)-4,5-dihydroxy-6-(hydroxymethyl)tetrahydro-2H-pyran-2-yloxy)methyl)-3,5-dihydroxytetrahydro-2H-pyran-2-yloxy)-4-hydroxy-6-(hydroxymethyl)tetrahydro-2H-pyran-2-yloxy)-4-hydroxy-6-(hydroxymethyl)tetrahydro-2H-pyran-2-ylamino)-4-oxobutanoic acid as substrate after 24 hrs in presence of GDP-fucose by HPLC method relative to control).
T1 sequence (whole entry): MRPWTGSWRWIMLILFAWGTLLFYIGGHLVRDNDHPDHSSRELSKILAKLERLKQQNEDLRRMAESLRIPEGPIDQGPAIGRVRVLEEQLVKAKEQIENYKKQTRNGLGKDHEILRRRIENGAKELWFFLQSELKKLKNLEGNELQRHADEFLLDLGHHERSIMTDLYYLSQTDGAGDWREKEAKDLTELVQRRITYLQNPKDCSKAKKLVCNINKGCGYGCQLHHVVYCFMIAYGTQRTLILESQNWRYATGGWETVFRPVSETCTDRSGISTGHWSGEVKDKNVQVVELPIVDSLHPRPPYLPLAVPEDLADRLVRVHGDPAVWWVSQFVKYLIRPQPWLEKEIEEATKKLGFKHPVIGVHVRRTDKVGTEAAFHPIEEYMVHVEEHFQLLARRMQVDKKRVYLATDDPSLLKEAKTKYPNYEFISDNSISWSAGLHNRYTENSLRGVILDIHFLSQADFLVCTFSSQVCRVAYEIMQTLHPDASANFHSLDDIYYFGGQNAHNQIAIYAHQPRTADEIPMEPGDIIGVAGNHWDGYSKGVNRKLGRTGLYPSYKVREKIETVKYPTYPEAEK
Type: cell-based

Structure (SMILES) | inhibition
C[C@@H]1O[C@H](OCCC(=O)NS(=O)(=O)CCCCCn2cnc3c(=O)[nH]c(N)nc32)[C@@H](O)[C@H](O)[C@@H]1O | 31%
CCN(CC)/C(CCO[C@H]1O[C@@H](C)[C@@H](O)[C@@H](O)[C@@H]1O)=N\S(=O)(=O)CCCCCn1cnc2c(=O)[nH]c(N)nc21 | 39%
C[C@@H]1O[C@H](OCc2cn(S(=O)(=O)CCCCCn3cnc4c(=O)[nH]c(N)nc43)nn2)[C@@H](O)[C@H](O)[C@@H]1O | 45%

Further lines, results first:

inhibition | Structure (SMILES)
14% | CCCS/C(CCO[C@H]1O[C@@H](C)[C@@H](O)[C@@H](O)[C@@H]1O)=N\S(=O)(=O)CCCCCn1cnc2c(=O)[nH]c(N)nc21
41% | CCCN/C(CCO[C@H]1O[C@@H](C)[C@@H](O)[C@@H](O)[C@@H]1O)=N\S(=O)(=O)CCCCCn1cnc2c(=O)[nH]c(N)nc21
57% | CO/C(CCO[C@H]1O[C@@H](C)[C@@H](O)[C@@H](O)[C@@H]1O)=N\S(=O)(=O)CCCCCn1cnc2c(=O)[nH]c(N)nc21
